# Measurements published in patent US20260184687A1, “DIHYDROINDENE DERIVATIVES AS MALT1 INHIBITORS” (C4X Discovery Limited, priority 2022, published 2026).
# Biological target: T1, FL hMALT1 enzyme (Homo sapiens, UniProt Q9UDY8)
# T1 sequence (Q9UDY8 1-824): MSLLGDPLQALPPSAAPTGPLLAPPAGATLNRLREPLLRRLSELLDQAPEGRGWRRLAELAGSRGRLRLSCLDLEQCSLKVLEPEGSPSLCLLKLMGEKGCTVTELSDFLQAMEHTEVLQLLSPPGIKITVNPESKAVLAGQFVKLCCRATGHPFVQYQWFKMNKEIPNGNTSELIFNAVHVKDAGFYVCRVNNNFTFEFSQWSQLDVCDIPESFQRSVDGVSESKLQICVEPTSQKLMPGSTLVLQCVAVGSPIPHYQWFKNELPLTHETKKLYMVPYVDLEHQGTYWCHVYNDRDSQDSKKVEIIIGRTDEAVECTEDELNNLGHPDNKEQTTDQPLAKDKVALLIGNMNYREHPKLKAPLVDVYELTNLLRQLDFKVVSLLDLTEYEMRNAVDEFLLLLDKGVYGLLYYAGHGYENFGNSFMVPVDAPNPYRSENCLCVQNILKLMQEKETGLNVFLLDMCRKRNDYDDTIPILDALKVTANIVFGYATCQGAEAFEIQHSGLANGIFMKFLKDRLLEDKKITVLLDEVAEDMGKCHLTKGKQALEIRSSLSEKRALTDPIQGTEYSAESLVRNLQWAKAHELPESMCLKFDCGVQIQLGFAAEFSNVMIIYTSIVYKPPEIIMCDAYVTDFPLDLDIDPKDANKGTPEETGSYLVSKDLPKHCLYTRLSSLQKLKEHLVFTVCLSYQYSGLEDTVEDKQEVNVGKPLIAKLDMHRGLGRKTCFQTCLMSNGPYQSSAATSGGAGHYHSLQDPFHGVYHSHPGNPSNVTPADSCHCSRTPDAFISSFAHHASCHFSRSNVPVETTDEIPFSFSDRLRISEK
# Assay: biochemical
# 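Also: Cell-free protease assay: enzyme preincubated with compound 30 min at room temperature, then cleavage of fluorogenic Ac-LVSR-AMC substrate (100 µM) tracked by fluorescence (ex 360/em 460 nm).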
row,SMILES,IC50 [nM]
1,"CN(C(=O)C1(NS(C)(=O)=O)CC1)[C@@H](c1ccc(NC2Cc3ccc(Cl)c(F)c3C2)cn1)C(F)(F)F (stereo partly drawn) [Example 290, N-((1S)-1-(5-((5-Chloro-4-fluoro-2,3-dihydro-1H-inden-2-yl)amino)pyridin-2-yl)-2,2,2-trifluoroethyl)-N-methyl-1-(methylsulfonamido)-cyclopropane-1-carboxamide]",120
2,"CN(C(=O)C1CCN(S(C)(=O)=O)CC1)[C@@H](c1ccc(NC2Cc3ccc(Cl)c(Cl)c3C2)cn1)C(F)(F)F (single isomer, unassigned) [Example 326]",240
3,"CN(C(=O)[C@H]1CNC(=O)C1)[C@@H](c1ccc(NC2Cc3ccc(Cl)c(Cl)c3C2)nc1)C(F)(F)F (single isomer, unassigned) [Example 346]",1100
4,"CN(C(=O)C1CCS(=O)(=O)CC1)[C@@H](c1ccc(NC2Cc3cccc(Br)c3C2)cn1)C(F)(F)F (stereo partly drawn) [Example 237, N-((1S)-1-(5-((4-Bromo-2,3-dihydro-1H-inden-2-yl)amino)pyridin-2-yl)-2,2,2-trifluoroethyl)-N-methyltetrahydro-2H-thiopyran-4-carboxamide 1,1-dioxide]",110
5,"CN(C(=O)C1CCS(=O)(=O)C1)[C@@H](c1ccc(NC2Cc3ccc(Cl)c(Cl)c3C2)cn1)C(F)(F)F (single isomer, unassigned) [Example 357]",690
6,"CN(C(=O)[C@H]1CCC(=O)NC1)[C@@H](c1ccc(NC2Cc3ccc(Cl)c(F)c3C2)nc1)C(F)(F)F (single isomer, unassigned) [Example 388]",490
7,"CN(C(=O)C1CC2(CCC(=O)N2)C1)[C@@H](c1ccc(NC2Cc3ccccc3C2(C)C)cn1)C(F)(F)F (single isomer, unassigned) [Example 231]",110
8,"CN(C(=O)C1CCS(=O)(=O)CC1)[C@@H](c1ccc(NC2Cc3cccc(Cl)c3C2)cn1)C(F)(F)F (single isomer, unassigned) [Example 264]",1200
9,"CN(C(=O)CO)[C@@H](c1ccc(NC2Cc3ccc(Cl)c(F)c3C2)cn1)C(F)(F)F (single isomer, unassigned) [Example 366]",3660
10,"CN(C(=O)[C@H]1CCC(=O)NC1)[C@@H](c1ccc(NC2Cc3ccc(Cl)c(F)c3C2)nc1)C(F)(F)F (single isomer, unassigned) [Example 389]",40
11,"CN(C(=O)C1CCS(=O)(=O)CC1)[C@@H](c1ccc(NC2Cc3cccc(C(F)(F)F)c3C2)nc1)C(F)(F)F (single isomer, unassigned) [Example 280]",860
12,"CN(C(=O)C1CCS(=O)(=O)CC1)[C@@H](c1ccc(NC2Cc3cccc(F)c3C2)cn1)C(F)(F)F (single isomer, unassigned) [Example 274]",280
13,"CN(C(=O)C1CCS(=O)(=O)CC1)[C@@H](c1ccc(NC2Cc3c(F)ccc(Cl)c3C2)cn1)C(F)(F)F (single isomer, unassigned) [Example 294]",2400
14,"CN(C(=O)C1CCS(=O)(=O)CC1)[C@@H](c1ccc(NC2Cc3cccc(F)c3C2)cn1)C(F)(F)F (single isomer, unassigned) [Example 275]",520
15,"CN(C(=O)[C@H]1CCC(=O)NC1)[C@@H](c1ccc(NC2Cc3ccc(Cl)c(Cl)c3C2)cn1)C(F)(F)F (single isomer, unassigned) [Example 320]",750
16,"CN(C(=O)C1CN(C(=O)C2CCO2)C1)[C@@H](c1ccc(NC2Cc3ccc(Cl)c(F)c3C2)cn1)C(F)(F)F (single isomer, unassigned) [Example 386]",2670
17,"CN(C(=O)C1CCCNC1)[C@@H](c1ccc(NC2Cc3ccccc3C2(C)C)cn1)C(F)(F)F (single isomer, unassigned) [Example 127]",300
18,"CN(C(=O)C1CCS(=O)(=O)CC1)[C@@H](c1ccc(NC2Cc3cc(Cl)cc(Cl)c3C2)cn1)C(F)(F)F (single isomer, unassigned) [Example 283]",910
19,"CN(C(=O)C1CC2(CCN2)C1)[C@@H](c1ccc(NC2Cc3ccccc3C2(C)C)cn1)C(F)(F)F (single isomer, unassigned) [Example 154]",150
20,"CC(=O)N[C@H]1CC[C@@H](C(=O)N(C)[C@@H](c2ccc(N[C@@H]3Cc4ccccc4C3(C)C)cn2)C(F)(F)F)C1 [Example 204, (1R,3S)-3-Acetamido-N—((S)-1-(5-(((R)-1,1-dimethyl-2,3-dihydro-1H-inden-2-yl)amino)pyridin-2-yl)-2,2,2-trifluoroethyl)-N-methylcyclopentane-1-carboxamide]",220
21,"COc1cccc2c1CC(Nc1ccc([C@H](N(C)C(=O)C3CCS(=O)(=O)CC3)C(F)(F)F)nc1)C2 (single isomer, unassigned) [Example 177]",6600
22,"CN(C(=O)[C@H]1CCC(=O)NC1)[C@@H](c1ccc(NC2Cc3ccc(Cl)c(F)c3C2)cn1)C(F)(F)F (single isomer, unassigned) [Example 336]",690
23,"CN(C(=O)C1CCS(=O)(=O)CC1)[C@@H](c1ccc(N[C@@H]2Cc3ccc(Cl)cc3C2)cn1)C(F)(F)F (single isomer, unassigned) [Example 200]",1100
24,"CN(C(=O)[C@H]1C[C@H](O)C1)[C@@H](c1ccc(NC2Cc3ccc(Cl)c(F)c3C2)cn1)C(F)(F)F (single isomer, unassigned) [Example 375]",1320
25,"CC(=O)N1CC(C(=O)N(C)[C@@H](c2ccc(NC3Cc4ccc(Cl)c(Cl)c4C3)cn2)C(F)(F)F)C1 (single isomer, unassigned) [Example 376]",1200
26,"CN(C(=O)C1CCS(=O)(=O)C1)[C@@H](c1ccc(NC2Cc3ccc(Cl)c(Cl)c3C2)cn1)C(F)(F)F (single isomer, unassigned) [Example 359]",480
27,"CN(C(=O)C1C2CS(=O)(=O)CC21)[C@@H](c1ccc(NC2Cc3ccccc3C2(C)C)cn1)C(F)(F)F (single isomer, unassigned) [Example 217]",170
28,"CN(C(=O)C1CCS(=O)(=O)CC1)[C@@H](c1ccc(NC2Cc3ccc(Br)cc3C2)cn1)C(F)(F)F (single isomer, unassigned) [Example 285]",690
29,"CN(C(=O)CO)[C@@H](c1ccc(NC2Cc3ccc(Cl)c(F)c3C2)cn1)C(F)(F)F (single isomer, unassigned) [Example 367]",310

# The remaining molecules from weak to strong by IC50, led by results:
row,IC50 [nM],SMILES
1,3300,"CN(C(=O)C1CCS(=O)(=O)CC1)[C@@H](c1ccc(NC2Cc3cc(Cl)cc(F)c3C2)cn1)C(F)(F)F (single isomer, unassigned) [Example 271]"
2,1900,"CN(C(=O)C1CCS(=O)(=O)CC1)[C@@H](c1ccc(NC2Cc3cc(F)c(F)c(F)c3C2)cn1)C(F)(F)F (single isomer, unassigned) [Example 295]"
3,1600,"CN(C(=O)C1CCS(=O)(=O)CC1)[C@@H](c1ccc(NC2Cc3ccc(F)c(Cl)c3C2)cn1)C(F)(F)F (single isomer, unassigned) [Example 266]"
4,1000,"CN(C(=O)C1CN(C(=O)C2CCOC2)C1)[C@@H](c1ccc(NC2Cc3ccc(Cl)c(Cl)c3C2)cn1)C(F)(F)F (single isomer, unassigned) [Example 354]"
5,570,"CN(C(=O)[C@@H]1CNC(=O)C1)[C@@H](c1ccc(NC2Cc3ccc(Cl)c(C4CC4)c3C2)cn1)C(F)(F)F (single isomer, unassigned) [Example 327]"
6,410,"Cc1ncc(C(=O)N(C)[C@@H](c2ccc(NC3Cc4ccc(Cl)c(F)c4C3)cn2)C(F)(F)F)cn1 (single isomer, unassigned) [Example 348]"
7,400,"CN1CCCC(C(=O)N(C)[C@@H](c2ccc(NC3Cc4ccccc4C3(C)C)cn2)C(F)(F)F)C1 (single isomer, unassigned) [Example 128]"
8,330,"CN(C(=O)CN1CCNC1=O)[C@@H](c1ccc(NC2Cc3ccccc3C2(C)C)cn1)C(F)(F)F (single isomer, unassigned) [Example 246]"
9,310,"CN(C(=O)C1COCC(=O)N1)[C@@H](c1ccc(NC2Cc3ccccc3C2(C)C)cn1)C(F)(F)F (single isomer, unassigned) [Example 161]"
10,260,"CN(C(=O)C1CCNCC1)[C@@H](c1ccc(NC2Cc3ccccc3C2(C)C)cn1)C(F)(F)F (single isomer, unassigned) [Example 147]"
11,190,"CN(C(=O)C1CCNC(=O)C1)[C@@H](c1ccc(N[C@H]2Cc3ccc(Cl)cc3C2)cn1)C(F)(F)F (single isomer, unassigned) [Example 313]"
12,160,"CN1CC(=O)NCC1C(=O)N(C)[C@@H](c1ccc(N[C@H]2Cc3ccccc3C2(C)C)cn1)C(F)(F)F (single isomer, unassigned) [Example 202]"
13,72,"CC(C)c1c(Cl)ccc2c1CC(Nc1ccc([C@H](N(C)C(=O)C3CCS(=O)(=O)CC3)C(F)(F)F)nc1)C2 (stereo partly drawn) [Example 369, N-((1S)-1-(5-((5-Chloro-4-isopropyl-2,3-dihydro-1H-inden-2-yl)amino)pyridin-2-yl)-2,2,2-trifluoroethyl)-N-methyltetrahydro-2H-thiopyran-4-carboxamide 1,1-dioxide]"
